Data reported in EP3390415B1, “(R)- AND (S)-1-(3-(3-N,N-DIMETHYLAMINOCARBONYL)PHENOXYL-4-NITROPHENYL)-1-ETHYL-N,N'-BIS (ETHYLENE)PHOSPHORAMIDATE, COMPOSITIONS AND METHODS FOR THEIR USE AND PREPARATION” (OBI PHARMA, INC., priority 2015, dated 2017).
Where two headings read alike, the source gives them in different places.

Key:
Assay in all cases: In vitro human tumor cell line cytotoxicity assay
Format in all cases: cell-based
LIXC012 = settings: for IC50: Homo sapiens
ATN-1 = settings: read-out: RelIC50
Procedure: (§1) TH 2870, TH 3423 and TH 3424 was also tested in different cancer cell lines using the materials and procedures as follows. 10* cell lysate buffer (cell signaling technology, Cat. No.9803); Protease Inhibitor Cocktail for Mammalian Tissues (Sigma, Cat. No.P8340); Phosphatase Inhibitor Cocktails for Serine/Threonine Phosphatases and L-Isozymes of Alkaline Phosphatases (Sigma, Cat. No.P0044); Phosphatase Inhibitor Cocktails for Tyrosine Protein Phosphatases, Acid and Alkaline Phosphatases (Sigma, Cat. No.P5726); BCA kit (Thermo, Cat. No.23225); Primary antibody, mouse monoclonal AKR1C3 antibody (clone NP6.G6.A6; Sigma-Aldrich); Primary antibody, α-tubulin (clone B-5-1-2; Sigma-Aldrich); Secondary antibody, Goat-anti-Mouse IgG HRP conjugated (A4416; Sigma-Aldrich) were used. Cells were passaged two generations in good condition and digested. The appropriate number of cells were inoculated in 6-cm cell culture dishes, and incubated at 37°C, 5% CO2 overnight. When the cells were grown to 80% density, the dish was removed from incubator. The medium was aspirated, washed twice with ice-cold PBS, and residual PBS was removed. An appropriate volume of ice-cold 1* cell lysate was added and incubated on ice for 10 minutes. Cell lysate was transferred to microfuge tubes chilled in ice, 4 °C, 12,000 rpm and centrifuged for 15 minutes. Supernatant was transferred into another microcentrifuge tube. Cell lysates were diluted by a 10* cell lysates, and add Protease Inhibitor Cocktail for Mammalian Tissues (Sigma, # P8340), Phosphatase Inhibitor Cocktails for Serine / Threonine Phosphatases and L-Isozymes of Alkaline Phosphatases, Phosphatase Inhibitor Cocktails for Tyrosine Protein Phosphatases, Acid and Alkaline Phosphatases. The BCA protein quantification kit for protein quantification was used with 1* cell lysate to dilute the cell lysate to the same concentration. Corresponding samples were added on 5* SDS-loading buffer, heated to 85 °C for 10 minutes, and centrifuged briefly. The samples were saved at -20 °C or used directly for protein electrophoresis. Those samples were electrophoresed according to standard practice, transferred to a membrane, the primary antibodies and then secondary antibody were applied according to the manufacturer's instructions. Odyssey infrared laser imaging system was used to scan signals.
(§2) The results are shown below in Figs. 3 and 4 and listed in the following tables: Table: TH 2870, TH 3423 and TH 3424 sensitivity in liver, prostate, esophageal cancer and leukemia cell lines

CCRF-CEM = settings: read-out: RelIC50
Procedure: as §1, §2

HL-60 = settings: read-out: RelIC50
Procedure: as §1, §2

KYSE 510 = settings: read-out: RelIC50
Procedure: as §1, §2

Mono-Mac-6_ = settings: read-out: RelIC50
Procedure: as §1, §2

OE 33 = settings: OE33, read-out: RelIC50
Procedure: as §1, §2

P116 = settings: read-out: RelIC50
Procedure: as §1, §2

PF-382 = settings: read-out: RelIC50
Procedure: as §1, §2

Reh 3 = settings: read-out: RelIC50
Procedure: as §1, §2

SUP-T1 = settings: read-out: RelIC50
Procedure: as §1, §2

TE-11 = settings: read-out: RelIC50
Procedure: as §1, §2

TE-15 = settings: read-out: RelIC50
Procedure: as §1, §2

TE-5 = settings: read-out: RelIC50
Procedure: as §1, §2

THP-1_ = settings: read-out: RelIC50
Procedure: as §1, §2

KYSE 180 = settings: read-out: RelIC50
HL-60 Clone = settings: read-out: RelIC50

SMILES: C[C@H](OP(=O)(N1CC1)N1CC1)c1ccc([N+](=O)[O-])c(Oc2cccc(C(=O)N(C)C)c2)c1 (single isomer, unassigned) [TH3424]
- Max Inhibition% (LIXC012): 82.8%
- Min Inhibition% (LIXC012): 4.1%
- IC50 (LIXC012; read-out: AbsIC50): 0.0175 µM
- IC50 (LIXC012; read-out: RelIC50): 0.0112 µM
- IC50 (ATN-1): 0.0298 µM
- IC50 (CCRF-CEM): 0.0037 µM
- IC50 (HL-60): 0.003 µM
- IC50 (KYSE 510): 0.18 µM
- IC50 (Mono-Mac-6_): > 1 µM
- IC50 (OE 33): 0.084 µM
- IC50 (P116): 0.084 µM
- IC50 (PF-382): 0.015 µM
- IC50 (Reh 3): 0.003 µM
- IC50 (SUP-T1): 0.003 µM
- IC50 (TE-11): 0.0027 µM
- IC50 (TE-15): 0.0029 µM
- IC50 (TE-5): 0.033 µM
- IC50 (THP-1_): > 1 µM
- IC50 (KYSE 180): 0.45 µM
- IC50 (HL-60 Clone): 0.0526 µM
